# “And” between values parts separate entries of the source, which are not always exact repeats. Equal entries are not always repeated.
# Tested on: S. aureus ATCC 25923 (reference strain)
# Assay: MIC/MBC by broth micro-dilution (CLSI)
# Type: cell-based
# Conditions: Staphylococcus aureus, ATCC25923, in square brackets, modal value
# Procedure: (§1) To expand the previously obtained results compounds 16 and 17 were also tested on wider a selection of strains: two other MDR S. aureus and E. faecalis clinical isolates, the S. aureus ATCC 25923 and the E. faecalis ATCC 51299 reference strains. Compound 2, which was endowed with low antimicrobial activity, was tested as well, to confirm its low efficacy. Adarotene was used as control compound (Table 2).
# (§2) MICs and MBCs were determined according to CLSI (Clinical and Laboratory Standards Institute) guidelines, in triplicate. Results are shown as modal values of the three replicates. According to MIC and MBC data, the killing rate was calculated as the ratio between MBC and MIC on which basis it is possible to define the compounds tested as bactericides (killing rate = 1–4), or bacteriostatic (killing rate > 4).
# (§3) Preparation of the solution containing molecules: for each molecule to be tested, solutions were made as DMSO stock, with a concentration of 2.560 mg/mL. Scalar dilutions were than prepared directly on plates by using Mueller Hinton Broth (MHB) as a growth medium (range 0.5–256 µg/mL).
# (§4) Bacterial suspension preparation: cryostrains preserved at −80 °C were recovered by incubation in growth medium (Brain Heart Infusion Broth, BHI) for 24–48 h at 35 ± 2 °C followed by passages in agar growth medium (Columbia Blood Agar). Colonies with less than 30 h were suspended in MHB with the purpose to prepare a bacterial suspension with a turbidity of 0.5 MF, containing approximately 1.5 × 10^8 cfu/mL. This suspension was than diluted in MHB until reaching a final concentration of 5 × 10^4 CFU/well. Simultaneously, check in broth-microdilution only with solvent (in order to exclude that the effect of growth inhibition might be due to the drug solution solvent), positive growth control in absence of DMSO and drug, and negative purity control only with injection broth were performed.
# S. aureus ATCC 25923 (reference strain): mecA negative; multi-susceptible.
row,Compound,MBC
1,"O=C(O)/C=C/c1ccc(-c2ccc(O)c(C34CC5CC(CC(C5)C3)C4)c2)cc1 [Adarotene, adarotene]",16 µg/mL and 42 µM
2,CC(C)(C)ON=Cc1cc(/C=C/C(=O)O)ccc1-c1ccc(O)c(C23CC4CC(CC(C4)C2)C3)c1 [Compound 16],4 µg/mL and 8 µM

# Same assay, conditions: Staphylococcus aureus, ATCC25923, modal value
row,MIC,Compound
1,8 µg/mL and 21 µM,"O=C(O)/C=C/c1ccc(-c2ccc(O)c(C34CC5CC(CC(C5)C3)C4)c2)cc1 [Adarotene, adarotene]"
2,2 µg/mL and 4 µM,CC(C)(C)ON=Cc1cc(/C=C/C(=O)O)ccc1-c1ccc(O)c(C23CC4CC(CC(C4)C2)C3)c1 [Compound 16]

# Tested on: tumor cell line H-460 NCI
# Assay: not given
# Parameters: method as in PMID 32920362
# Conditions: ± SD, ref [17], read-out: IC50 (concentration required for 50% inhibition of cell growth); cited from earlier work
row,Compound,IC50 [µM]
1,CC(C)(C)ON=Cc1cc(/C=C/C(=O)O)ccc1-c1ccc(O)c(C23CC4CC(CC(C4)C2)C3)c1 [Compound 16],> 10

# Tested on: tumor cell line IGROV-1
# Assay: not given
# Conditions: ± SD, ref [13], read-out: IC50 (concentration required for 50% inhibition of cell growth); cited from earlier work
row,Compound,IC50 [nM]
1,"O=C(O)/C=C/c1ccc(-c2ccc(O)c(C34CC5CC(CC(C5)C3)C4)c2)cc1 [Adarotene, adarotene]",230 ± 80

# Tested on: S. aureus strain 1 (MDR clinical isolate, MRSA, mecA positive)
# Assay: MIC/MBC by broth micro-dilution (CLSI)
# Type: cell-based, Staphylococcus aureus
# Conditions: S. aureus Strain 1; modal value of three replicates
# Procedure: (§5) The compounds were initially tested with a methicillin-resistant S. aureus and an E. faecalis clinical isolates (details in the experimental section), two MDR strains according to definition by Magiorakos et al.. The activity of studied compounds was assessed by broth micro-dilution method. Minimal Inhibitory Concentration (MIC), and Minimal Bactericidal Concentration (MBC) were determined and possible bacteriostatic or bactericidal activity was also investigated.
# as §2, §3, §4
# S. aureus strain 1 (collection, MDR): mecA positive; MRSA, β-lactamase positive, resistant to ciprofloxacin, gentamicin and erythromycin.
row,MIC,Compound
1,4 [4] µg/mL,CC(C)(C)ON=Cc1cc(/C=C/C(=O)O)ccc1-c1ccc(O)c(C23CC4CC(CC(C4)C2)C3)c1 [Compound 16]

# Same assay, conditions: S. aureus and E. faecalis; bactericides killing rate = 1–4, bacteriostatic > 4
row,Compound,bactericidal or bacteriostatic activity (killing rate = MBC/MIC)
1,CC(C)(C)ON=Cc1cc(/C=C/C(=O)O)ccc1-c1ccc(O)c(C23CC4CC(CC(C4)C2)C3)c1 [Compound 16],bactericidal effect

# Same assay, conditions: Staphylococcus aureus, MRSA, S. aureus Strain 1; modal value of three replicates; read-out: MIC
row,MIC [µg/mL],Compound
1,8,"O=C(O)/C=C/c1ccc(-c2ccc(O)c(C34CC5CC(CC(C5)C3)C4)c2)cc1 [Adarotene, adarotene]"
2,4,CC(C)(C)ON=Cc1cc(/C=C/C(=O)O)ccc1-c1ccc(O)c(C23CC4CC(CC(C4)C2)C3)c1 [Compound 16]

# Same assay, conditions: Staphylococcus aureus, MRSA, S. aureus Strain 1; modal value; read-out: MIC
row,MIC [µM],Compound
1,21,"O=C(O)/C=C/c1ccc(-c2ccc(O)c(C34CC5CC(CC(C5)C3)C4)c2)cc1 [Adarotene, adarotene]"
2,8,CC(C)(C)ON=Cc1cc(/C=C/C(=O)O)ccc1-c1ccc(O)c(C23CC4CC(CC(C4)C2)C3)c1 [Compound 16]

# Same assay, conditions: Staphylococcus aureus, MRSA; S. aureus Strain 1; in square brackets; modal value
row,Compound,MBC
1,"O=C(O)/C=C/c1ccc(-c2ccc(O)c(C34CC5CC(CC(C5)C3)C4)c2)cc1 [Adarotene, adarotene]",16 µg/mL and 42 µM
2,CC(C)(C)ON=Cc1cc(/C=C/C(=O)O)ccc1-c1ccc(O)c(C23CC4CC(CC(C4)C2)C3)c1 [Compound 16],4 µg/mL and 8 µM

# Tested on: E. faecalis strain 2 (MDR clinical isolate)
# Assay: MIC/MBC by broth micro-dilution (CLSI)
# Type: cell-based
# Conditions: Enterococcus faecalis, in square brackets, modal value
# Procedure: as §1, §2, §3, §4
# E. faecalis strain 2 (collection, MDR) vanA/B negative; aminoglycosides high-level resistant to aminoglycosides (gentamicin and strseptomycin) and ampicillin.
row,Compound,MBC
1,"O=C(O)/C=C/c1ccc(-c2ccc(O)c(C34CC5CC(CC(C5)C3)C4)c2)cc1 [Adarotene, adarotene]",32 µg/mL and 84 µM
2,CC(C)(C)ON=Cc1cc(/C=C/C(=O)O)ccc1-c1ccc(O)c(C23CC4CC(CC(C4)C2)C3)c1 [Compound 16],8 µg/mL and 16 µM

# Same assay, conditions: Enterococcus faecalis, modal value
row,MIC,Compound
1,4 µg/mL and 10 µM,"O=C(O)/C=C/c1ccc(-c2ccc(O)c(C34CC5CC(CC(C5)C3)C4)c2)cc1 [Adarotene, adarotene]"
2,2 µg/mL and 4 µM,CC(C)(C)ON=Cc1cc(/C=C/C(=O)O)ccc1-c1ccc(O)c(C23CC4CC(CC(C4)C2)C3)c1 [Compound 16]

# Tested on: E. faecalis strain 1 (MDR clinical isolate)
# Assay: MIC/MBC by broth micro-dilution (CLSI)
# Type: cell-based, Enterococcus faecalis
# Conditions: Enterococcus faecalis, in square brackets, modal value
# Procedure: as §5, §2, §3, §4
# E. faecalis strain 1 (collection, MDR) vanA/B negative; aminoglycosides high-level resistant to aminoglycosides (gentamicin and streptomycin) and ampicillin.
row,Compound,MBC
1,"O=C(O)/C=C/c1ccc(-c2ccc(O)c(C34CC5CC(CC(C5)C3)C4)c2)cc1 [Adarotene, adarotene]",32 µg/mL and 85 µM
2,CC(C)(C)ON=Cc1cc(/C=C/C(=O)O)ccc1-c1ccc(O)c(C23CC4CC(CC(C4)C2)C3)c1 [Compound 16],4 µg/mL and 8 µM

# Same assay, conditions: Enterococcus faecalis, modal value of three replicates, read-out: MIC
row,MIC [µg/mL],Compound
1,1,"O=C(O)/C=C/c1ccc(-c2ccc(O)c(C34CC5CC(CC(C5)C3)C4)c2)cc1 [Adarotene, adarotene]"
2,2 to 8,CC(C)(C)ON=Cc1cc(/C=C/C(=O)O)ccc1-c1ccc(O)c(C23CC4CC(CC(C4)C2)C3)c1 [Compound 16]

# Same assay, conditions: Enterococcus faecalis, modal value, read-out: MIC
row,MIC [µM],Compound
1,3,"O=C(O)/C=C/c1ccc(-c2ccc(O)c(C34CC5CC(CC(C5)C3)C4)c2)cc1 [Adarotene, adarotene]"
2,4,CC(C)(C)ON=Cc1cc(/C=C/C(=O)O)ccc1-c1ccc(O)c(C23CC4CC(CC(C4)C2)C3)c1 [Compound 16]

# Same assay, conditions: modal value of three replicates
row,MIC [µg/mL],Compound
1,2,CC(C)(C)ON=Cc1cc(/C=C/C(=O)O)ccc1-c1ccc(O)c(C23CC4CC(CC(C4)C2)C3)c1 [Compound 16]

# Tested on: E. faecalis ATCC 51299 (reference strain, vanB positive)
# Assay: MIC/MBC by broth micro-dilution (CLSI)
# Type: cell-based
# Conditions: Enterococcus faecalis, ATCC51299, in square brackets, modal value
# Procedure: as §1, §2, §3, §4
# E. faecalis ATCC 51299 (reference strain): vanB positive.
row,Compound,MBC
1,"O=C(O)/C=C/c1ccc(-c2ccc(O)c(C34CC5CC(CC(C5)C3)C4)c2)cc1 [Adarotene, adarotene]",32 µg/mL and 84 µM
2,CC(C)(C)ON=Cc1cc(/C=C/C(=O)O)ccc1-c1ccc(O)c(C23CC4CC(CC(C4)C2)C3)c1 [Compound 16],8 µg/mL and 16 µM

# Same assay, conditions: Enterococcus faecalis, ATCC51299, modal value
row,MIC,Compound
1,2 µg/mL and 5 µM,"O=C(O)/C=C/c1ccc(-c2ccc(O)c(C34CC5CC(CC(C5)C3)C4)c2)cc1 [Adarotene, adarotene]"
2,2 µg/mL and 4 µM,CC(C)(C)ON=Cc1cc(/C=C/C(=O)O)ccc1-c1ccc(O)c(C23CC4CC(CC(C4)C2)C3)c1 [Compound 16]

# Tested on: S. aureus strain 2 (MDR clinical isolate)
# Assay: MIC/MBC by broth micro-dilution (CLSI)
# Type: cell-based
# Conditions: Staphylococcus aureus, in square brackets, modal value
# Procedure: as §1, §2, §3, §4
# S. aureus strain 2 (collection, MDR): mecA negative; β-lactamase positive, resistant to erythromycin, gentamicin, clindamycin and fusidic acid.
row,Compound,MBC
1,"O=C(O)/C=C/c1ccc(-c2ccc(O)c(C34CC5CC(CC(C5)C3)C4)c2)cc1 [Adarotene, adarotene]",8 µg/mL and 21 µM
2,CC(C)(C)ON=Cc1cc(/C=C/C(=O)O)ccc1-c1ccc(O)c(C23CC4CC(CC(C4)C2)C3)c1 [Compound 16],2 µg/mL and 4 µM

# Same assay, conditions: Staphylococcus aureus, modal value
row,MIC,Compound
1,4 µg/mL and 10 µM,"O=C(O)/C=C/c1ccc(-c2ccc(O)c(C34CC5CC(CC(C5)C3)C4)c2)cc1 [Adarotene, adarotene]"
2,2 µg/mL and 4 µM,CC(C)(C)ON=Cc1cc(/C=C/C(=O)O)ccc1-c1ccc(O)c(C23CC4CC(CC(C4)C2)C3)c1 [Compound 16]

# — publication PMC7912516, “New Antimicrobials Based on the Adarotene Scaffold with Activity against Multi-Drug Resistant Staphylococcus aureus and Vancomycin-Resistant Enterococcus” (Antibiotics, 2021)
